Experimental data from patent US9125904B1, “Biphenyl imidazoles and related compounds useful for treating HCV infections” (ACHILLION PHARMACEUTICALS, INC., priority 2010, dated 2015).
Like-named read-outs stand apart in the source and are kept apart here.

System: HCV replicon
Test: HCV replicon replication assay (NPT ELISA)
Format: cell-based
Settings: Hepatitis C virus
Protocol: Compounds claimed herein are tested for the ability to inhibit viral replication of the Hepatitis C replicon in cultured cells in which the HCV replicon construct has been incorporated. The HCV replicon system was described by Bartenschlager, et. al (Science, 285, pp. 110-113 (1999)). The replicon system is predictive of in vivo anti-HCV activity; compounds that are active in humans uniformly evidence activity in the replicon assay.
In this assay HCV replicon containing cells are treated with different concentrations of the test compound to ascertain the ability of the test compound to suppress replication of the HCV replicon. As a positive control, HCV replicon-containing cells are treated with different concentrations of interferon alpha, a known inhibitor of HCV replication. The replicon assay system includes Neomycin Phosphotransferase (NPT) as a component of the replicon itself in order to detect the transcription of replicon gene products in the host cell. Cells in which the HCV replicon is actively replicating have high levels of NPT; the level of NPT is proportional to HCV replication. […] The NPT level of each sample is measured using a captured ELISA.
A protocol for testing compounds for the ability to inhibit viral replication of the Hepatitis C replicon cultured cells in which the replicon construct has been incorporated, follows.
The HCV replicon contains, 5′-3′, the HCV-IRES, the neomycin phosphotransferase (neo) gene, the IRES of encephalomyocarditis virus, which directs translation of HCV sequences NS3 to NS5B, and the 3′-NTR. The sequence of the HCV replicon has been deposited in GenBank (Accession no. AJ242652).
The replicon is transfected into Huh-7 cells using standard methods such as electroporation.
The equipment and materials include, but are not limited to, Huh-7 HCV replicon-containing cells, maintenance media (DMEM (Dulbecco's modified Eagle media) supplemented with 10% FBS, L-glutamine, non-essential amino acids, penicillin (100 units/ml), streptomycin (100 micrograms/ml), and 500 micrograms/ml of Geneticin (G418), screening media (DMEM supplemented with 10% FBS, L-glutamine, non-essential amino acids, penicillin (100 units/ml) and streptomycin (100 micrograms/ml)), 96 well tissue culture plates (flat bottom), 96 well plates (U bottom for drug dilution), Interferon alpha for positive control, fixation reagent (such as methanol: acetone), primary antibody (rabbit anti-NPTII), secondary antibody: Eu-N1 1, and enhancement solution.
HCV replicon-containing cells support high levels of viral RNA replicon replication when their density is suitable. Over-confluency causes decreased viral RNA replication. Therefore, cells must be kept growing in log phase in the presence of 500 micrograms/ml of G418. Generally, cells should be passed twice a week at 1: 4-6 dilution. Cell maintenance is conducted as follows:
HCV replicon-containing cells are examined under a microscope to ensure that cells growing well. Cells are rinsed once with PBS and 2 ml trypsin is added. The cell/trypsin mixture is incubated at 37° C. in a CO2 incubator for 3-5 minutes. After incubation 10 ml of complete media is added to stop the trypsinization reaction. Cells are blown gently, put into a 15 ml tube, and spun at 1200 rpm for 4 minutes. The trypsin/medium solution is removed. Medium (5 ml) is added and the cells are mixed carefully. The cells are counted.
The cells are then seeded onto 96-well plates at a density of 6000-7500 cells/100 microliters/well (6−7.5×10^5 cells/10 ml/plate). The plates are then incubated at 37° C. in a 5% CO2 incubator.
Cells are examined under a microscope approximated 24 hours after seeding and prior to adding drugs. If counting and dilution were performed correctly, cells are 60-70% confluent and nearly all cells should attach and spread evenly in the well.
HCV replicon-containing cells are rinsed with once PBS once; 2 mls of trypsin are then added. Cells are incubated at 37° C. in a 5% CO2 incubator for 3-5 minutes. […]

[1] = 72 h, Huh-7 HCV replicon-containing cells, three days, class symbols, read-out: EC50

Compound	EC50 [1]	EC50 (Huh-7)	EC50 (72 h, Huh-7 HCV replicon-containing cells, three days, numeric cells, read-out: EC50)
CNC(=O)C[C@H](C(=O)N1CCC[C@@H]1c1ncc(-c2ccc(-c3ccc(-c4cnc([C@@H]5CCCN5C(=O)[C@@H](CC(=O)NC)C(C)C)[nH]4)cc3)cc2)[nH]1)C(C)C [Compound 40, (S)-3-((R)-2-(5-(4′-(2-((S)-1-((S)-2-isopropyl-4-(methylamino)-4-oxobutanoyl)pyrrolidin-2-yl)-1H-imidazol-5-yl)biphenyl-4-yl)-1H-imidazol-2-yl)pyrrolidine-1-carbonyl)-N,4-dimethylpentanamide]	< 5 nM	≤ 10000 nM	–
COC(=O)N[C@H](C(=O)N1CCc2ccc(NC(=O)c3ccc(-c4ccc(-c5cnc([C@@H]6CCCN6C(=O)[C@@H](NC(=O)OC)C(C)C)[nH]5)cc4)cc3)cc21)C(C)C [Compound 41]	< 5 nM	–	–
COC(=O)NC(C(=O)N1CCC[C@H]1Cc1nc(-c2ccc(-c3ccc(-c4cnc([C@@H]5CCCN5C(=O)[C@@H](NC(=O)OC)C(C)C)[nH]4)cc3)cc2)c[nH]1)C(C)C (stereo partly drawn) [Compound 42]	< 5 nM	–	–
COC(=O)N[C@H](C(=O)N1CCC[C@H]1c1ncc(-c2ccc(-c3ccc(-c4c[nH]c([C@@H]5C6CC([C@H](O)C6)N5C(=O)[C@@H](NC(=O)OC)C(C)C)n4)cc3)cc2)[nH]1)C(C)C (stereo partly drawn) [Compound 45]	< 50 nM	–	–
COC(=O)N[C@H](C(=O)N1CCC[C@H]1c1ncc(-c2ccc(-c3ccc(-c4c[nH]c([C@@H]5C6CC([C@@H](O)[C@H]6O)N5C(=O)[C@@H](NC(=O)OC)C(C)C)n4)cc3)cc2)[nH]1)C(C)C (stereo partly drawn) [Compound 46]	< 50 nM	–	–
COC(=O)N[C@H](C(=O)N1CCC[C@H]1c1nc(-c2ccc(-c3ccc(-c4c[nH]c([C@@H]5C6CCC(CC6)N5C(=O)[C@@H](NC(=O)OC)C(C)C)n4)cc3)cc2)c[nH]1)C(C)C [Compound 47]	< 5 nM	–	–
COC(=O)N[C@H](C(=O)N1CCCC[C@H]1c1nc(-c2ccc(-c3ccc(-c4c[nH]c([C@@H]5CCCN5C(=O)[C@@H](NC(=O)OC)C(C)C)n4)cc3)cc2)c[nH]1)C(C)C [Compound 48]	< 5 nM	–	–
COC(=O)N[C@H](C(=O)N1CCCCC1c1nc(-c2ccc(-c3ccc(-c4c[nH]c(C5C6CCC(C6)N5C(=O)[C@@H](NC(=O)OC)C(C)C)n4)cc3)cc2)c[nH]1)C(C)C (stereo partly drawn) [Compound 49]	< 5 nM	–	–
COC(=O)N[C@H](C(=O)N1CCCCC1c1nc(-c2ccc(-c3ccc(-c4c[nH]c(C5CCCCN5C(=O)[C@@H](NC(=O)OC)C(C)C)n4)cc3)cc2)c[nH]1)C(C)C (stereo partly drawn) [Compound 50]	< 5 nM	–	–
COC(=O)NC(C(=O)N1C2CCC(CC2)C1c1ncc(-c2ccc(-c3ccc(-c4c[nH]c([C@@H]5C6CCC(CC6)N5C(=O)C(NC(=O)OC)C(C)C)n4)cc3)cc2)[nH]1)C(C)C (stereo partly drawn) [Compound 51]	< 5 nM	–	–
COC(=O)N[C@H](C(=O)N1C2CC(CN(C)C2)C1c1nc(-c2ccc(-c3ccc(-c4cnc([C@@H]5CCCN5C(=O)[C@@H](NC(=O)OC)C(C)C)[nH]4)cc3)cc2)c[nH]1)C(C)C (stereo partly drawn) [Compound 52]	< 50 nM	–	–
COC(=O)N[C@H](C(=O)N1C2CCC(C2)[C@H]1c1ncc(-c2ccc(Br)cc2)[nH]1)C(C)C (stereo partly drawn) [Compound 54, methyl (2S)-1-((3S)-3-(5-(4-bromophenyl)-1H-imidazol-2-yl)-2-azabicyclo[2.2.1]heptan-2-yl)-3-methyl-1-oxobutan-2-ylcarbamate]	–	–	< 100 nM
COC(=O)N[C@H]1CC[C@H]2CC[C@@H](c3ncc(-c4ccc(-c5ccc(-c6cnc([C@@H]7CCCN7C(=O)[C@@H](NC(=O)OC)C(C)C)[nH]6)cc5)cc4)[nH]3)N2C1=O [Compound 55]	< 50 nM	–	–
COC(=O)N[C@H](C(=O)N1C2CCC(C2)C1c1ncc(-c2ccc(-c3ccc(-c4cnc(C5C6CCC(C6)N5C(=O)[C@@H](NC(=O)OC)C(C)C)[nH]4)cc3)cc2)[nH]1)C(C)C (stereo partly drawn) [Compound 56, dimethyl (2S,2′S)-1,1′-(3,3′-(5,5′-(biphenyl-4,4′-diyl)bis(1H-imidazole-5,2-diyl))bis(2-azabicyclo[2.2.1]heptane-3,2-diyl))bis(3-methyl-1-oxobutane-2,1-diyl)dicarbamate]	< 5 nM	–	–
